What was measured:
[1] = tested on: Plasmodium falciparum; assay: Antimicrobial activity against Plasmodium falciparum harboring NGFSDD genotype after 72 hrs by SYBR green I assay
[2] = tested on: Plasmodium falciparum; assay: Antimicrobial activity against Plasmodium falciparum harboring SVMNT genotype after 72 hrs by SYBR green I assay
[3] = tested on: Plasmodium falciparum; assay: Antimicrobial activity against Plasmodium falciparum harboring CVMNT genotype after 72 hrs by SYBR green I assay

SMILES: OC(c1cc(C(F)(F)F)nc2c(C(F)(F)F)cccc12)C1CCCCN1 (stereo not drawn) [MEFLOQUINE]
- IC50 [1]: 0.021 µM

SMILES: C=C[C@H]1CN2CC[C@H]1C[C@H]2[C@H](O)c1ccnc2ccc(OC)cc12 [QUININE]
- IC50 [2]: 0.07 µM
- IC50 [3]: 0.066 µM
